This note sets out measurements from paper PMC9775191, “A Subset Screen of the Compounds Australia Scaffold Library Identifies 7-Acylaminodibenzoxazepinones as Potent and Selective Hits for Anti-Giardia Drug Discovery” (Biomedicines, 2022).

In one test the test system is G. duodenalis BRIS/91/HEPU/1279. The test can be described thus: Primary Giardia screen at 10 µM (live-cell imaging, automated counting). Format: cell-based, Giardia duodenalis. To be noted: 24 h. A digest of the protocol: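 Singlicate, 10 μM final, 0.2% DMSO; sealed chambers, 3% O2/5% CO2/N2. Counts by live-cell imaging at 24 h and 48 h. % growth vs vehicle, media background subtracted; Z' per plate.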
On to `CCOC(=O)c1cccc(Nc2ncccc2S(N)(=O)=O)c1` [SN00799296], for which the “Average % Inhibition 24h” value is listed as 14.5%.

Staying with this test, now noted: 24 h, first singlicate assay.
Take `CCOC(=O)c1cccc(Nc2ncccc2S(N)(=O)=O)c1` [SN00799296]: the “% Inhibition n=1 24h” value was 29.1%.

The same test, now with this note: 24 h, re-assessment.
Turning to `CCOC(=O)c1cccc(Nc2ncccc2S(N)(=O)=O)c1` [SN00799296], the “% Inhibition n=2 24h” value is on record as 0.0%.

The same test, now with this note: 48 h.
Turning to `CCOC(=O)c1cccc(Nc2ncccc2S(N)(=O)=O)c1` [SN00799296], the “Average % Inhibition 48h” value was determined as 35.4%.

Staying with this test, now noted: 48 h, first singlicate assay.
As to `Cc1cc(C)c(S(=O)(=O)N2CCc3[nH]cnc3C2)cc1C` [SN00798786], the “% Inhibition n=1 48h” value worked out at 0.0%. For the molecule `COc1c(C(=O)Nc2ccccc2)oc2ccc(NC(=O)C3CCCCC3)cc12` [SN00798797], the “% Inhibition n=1 48h” value was 3.8%. Consider `COc1c(C(=O)Nc2ccc(C)cc2)oc2ccc(NC(=O)c3ccc(C)s3)cc12` [SN00798811], for which the “% Inhibition n=1 48h” value was found to be 19.9%. In the case of `CC(=O)N1CCc2cc(C)c(S(=O)(=O)NC3CC3)cc21` [SN00798831], the “% Inhibition n=1 48h” value was determined as 4.3%. Take `Cc1cc2c(cc1S(=O)(=O)NC(C)C)N(C(=O)C1CC1)CC2` [SN00798844]: the “% Inhibition n=1 48h” value was 15.5%.

`CC(C)c1csc(-c2ccc(S(=O)(=O)NCc3ccc(Cl)cc3)s2)n1` [SN00798864]: the “% Inhibition n=1 48h” value came to 0.0%. For `CCC(C)NC(=O)C1CCN(c2cnc(N3CCSCC3)nc2)CC1` (stereo not drawn) [SN00798903], the “% Inhibition n=1 48h” value was found to be 12.6%. On to `CCCC(=O)Nc1ccc2c(c1)CN(C(=O)Cc1ccccc1C)C(C(=O)N(C)C)C2` (stereo not drawn) [SN00798922], for which the “% Inhibition n=1 48h” value turned out to be 11.7%.

In the case of `CC(=O)Nc1ccc2c(c1)CN(C(=O)C1CCCCC1)C(C(=O)N1CCCCC1)C2` (stereo not drawn) [SN00798930], the “% Inhibition n=1 48h” value was determined as 8.7%. With `CCc1c(C2CCN(C(=O)c3cnccn3)CC2)noc1N` [SN00798959], the “% Inhibition n=1 48h” value is recorded as 12.1%. Turning to `CCCn1c(C2CCN(C(=O)Nc3ccc(F)cc3)CC2)cc(=O)n2nccc12` [SN00798971], the “% Inhibition n=1 48h” value worked out at 19.1%. Take `Cn1c(C2CCN(C(=O)Nc3ccccc3F)CC2)cc(=O)n2nccc12` [SN00798982]: the “% Inhibition n=1 48h” value amounted to 3.2%.

In the case of `COc1ccc(-c2ncc3c(n2)CCN(C(=O)c2ccccc2C(F)(F)F)C3)cc1` [SN00799000], the “% Inhibition n=1 48h” value was found to be 0.0%. As for `O=C(c1cccc(Br)c1)N1CCc2nc(-c3ccc(F)cc3)ncc2C1` [SN00799013], the “% Inhibition n=1 48h” value was determined as 13.8%. Consider `O=S(=O)(c1cccc2cccnc12)N1CCc2nc(-c3ccc(F)cc3)ncc2C1` [SN00799070], for which the “% Inhibition n=1 48h” value is listed as 3.1%. Consider `COc1ccc(S(=O)(=O)N2CCc3nc(-c4ccccc4)ncc3C2)cc1` [SN00799076], for which the “% Inhibition n=1 48h” value is given as 6.9%. Turning to `CCCN(C)C(=O)c1ccc(-c2ccnc(N3CCCCC3)n2)cc1` [SN00799110], the “% Inhibition n=1 48h” value was 0.0%. Still for that read-out and setting: with `CCC(C)NC(=O)CC1Sc2ncccc2N(C)C1=O` (stereo not drawn) [SN00799120] the figure was 11.7%; with `O=C(Cn1c(=O)c2nncn2c2ncccc21)N1CCN(c2cccc(Cl)c2)CC1` [SN00799155], 17.9%. Regarding `CCn1nnc2c(C(=O)NCCC3=CCCCC3)c(C)sc2c1=O` [SN00799184], the “% Inhibition n=1 48h” value is given as 2.6%. Take `CCCNC(=O)c1cncc(-c2cccc(NC(=O)CC)c2)c1` [SN00799189]: the “% Inhibition n=1 48h” value was determined as 0.0%. The same measure, in the same setting: with `Cc1ccccc1C(=O)N1CCC(Cc2nnc(-c3ccccc3)o2)CC1` [SN00799218] the figure was 12.0%; with `O=C(N1CCC(CCOCc2cccc(F)c2)CC1)C1(c2ccccc2)CC1` [SN00799224], 0.0%; with `CCOC(=O)c1cccc(Nc2ncccc2S(N)(=O)=O)c1` [SN00799296], 70.8%. Same read-out and setting: with `CC(C)(C)NC(=O)c1cc(-c2cccnc2)[nH]n1` [SN00799308] the figure was 15.5%; with `O=C(c1cc(-c2cccnc2)[nH]n1)N1CCCC1` [SN00799309], 13.7%. On to `Cc1cn2c(S(=O)(=O)N3CCN(c4ccc(F)cc4)CC3)c(C(C)C)nc2s1` [SN00799325], for which the “% Inhibition n=1 48h” value stood at 19.4%. `COc1ccc(CNS(=O)(=O)c2c(C)nc3sc(C)nn23)cc1` [SN00799344]: the “% Inhibition n=1 48h” value was determined as 4.3%. Same read-out and setting: the same measure for `CC(=O)c1cccc(NC(=O)CN2CCC(c3nc(-c4ccccc4)no3)CC2)c1` [SN00799373]: 0.0%.

As for `O=C(CN1CCC(c2nc(-c3ccc(F)cc3)no2)CC1)NCc1ccccc1` [SN00799393], the “% Inhibition n=1 48h” value was determined as 0.0%. Regarding `O=C(CCn1ccn2nc(-c3ccccc3Cl)cc2c1=O)NCc1ccc(F)cc1` [SN00799415], the “% Inhibition n=1 48h” value was found to be 0.0%.

As for `COc1ccc(-c2cccc(NC(=O)c3ccccc3Br)c2)nn1` [SN00799416], the “% Inhibition n=1 48h” value was determined as 16.0%.

For the molecule `Cc1nc(-c2ccccn2)cc2nn(CC(=O)N3CCC(Cc4ccccc4)CC3)c(=O)n12` [SN00799441], the “% Inhibition n=1 48h” value is 4.9%.

Turning to `Cc1ccc(NC(=O)c2cnc3c(c2)c(=O)n(C)c(=O)n3-c2ccccc2)cc1` [SN00799453], the “% Inhibition n=1 48h” value amounted to 0.0%. On to `Cc1ccc(NC(=O)CN2N=C(C(=O)Nc3ccc(F)cc3)CCC2=O)cc1F` [SN00799502], for which the “% Inhibition n=1 48h” value is 8.0%. In the case of `O=C(COc1ccc(F)cc1)N1CCN(c2nc(CN3CCCC3)cs2)CC1` [SN00799511], the “% Inhibition n=1 48h” value is on record as 1.1%. Take `Cc1cccc(-c2nc3sc(N4CCCCC4)nn3c2NC(=O)C2CC2)c1` [SN00799546]: the “% Inhibition n=1 48h” value was found to be 23.2%. Turning to `CN(Cc1ccccc1)C(=O)c1cccc2c1CCN2C(=O)Nc1ccccc1` [SN00799558], the “% Inhibition n=1 48h” value is 0.0%. With `Cn1c(C(=O)N2CCN(c3ccccc3)CC2)cc2c1CCN(Cc1ccccc1)C2` [SN00799590], the “% Inhibition n=1 48h” value was determined as 1.6%. On the same count and under the same terms, with `Cc1cccc(CN2CCc3c(cc(C(=O)NC(C)(C)C)n3C)C2)c1` [SN00799594] the figure was 0.0%; with `Cc1csc(-c2ccc(CNC(=O)c3n[nH]c4ccccc34)cc2)n1` [SN00799624], 25.2%. As for `CSc1ccc(NC(=O)c2cn(C)c3ncccc23)cc1` [SN00799688], the “% Inhibition n=1 48h” value is 9.5%.

As to `CCOCCn1c(N2CCCCC2)nc(C)cc1=O` [SN00799709], the “% Inhibition n=1 48h” value stood at 33.8%.

Turning to `O=C(Nc1cnc(-c2ccccc2)nc1)c1ccccc1C(F)(F)F` [SN00799772], the “% Inhibition n=1 48h” value is reported as 0.0%.

As for `CN1CCCc2cc(C(=O)NCc3cccs3)sc21` [SN00799810], the “% Inhibition n=1 48h” value turned out to be 0.0%. `CCOc1ccc2nc(C(=O)N3CCN(c4cccc(C)c4C)CC3)cn2n1` [SN00799885]: the “% Inhibition n=1 48h” value is reported as 9.3%. On to `O=C(c1cn2ccccc2n1)N1CCN(c2ccccc2F)CC1` [SN00799900], for which the “% Inhibition n=1 48h” value is listed as 4.9%. Take `CSc1ccc(CNC(=O)c2cn3cc(C)ccc3n2)cc1` [SN00799926]: the “% Inhibition n=1 48h” value is reported as 26.2%.

For the molecule `CCCn1ccc2sc(C)c(C(=O)NC3CCCCC3)c2c1=O` [SN00799943], the “% Inhibition n=1 48h” value is given as 16.0%. Take `Cc1sc2ccn(CC(C)C)c(=O)c2c1C(=O)NCCN1CCCCC1` [SN00799956]: the “% Inhibition n=1 48h” value was 23.1%.

As to `CNc1cccnc1OC1CCN(C(=O)CCc2nc3ccccc3[nH]2)C1` (stereo not drawn) [SN00799967], the “% Inhibition n=1 48h” value came out at 11.3%. With `O=S(=O)(Nc1ccc(OC2CCNCC2)nc1)c1ccccc1` [SN00799991], the “% Inhibition n=1 48h” value amounted to 0.0%. The same measure, in the same setting: the same measure for `COCC(=O)N1CCC(Oc2ncccc2C(=O)N(C)C)CC1` [SN00800001]: 4.8%; for `CN1CCC(Oc2ncccc2C(=O)N2CCOCC2)CC1` [SN00800013]: 15.5%; for `Cc1ccc(C(=O)N2CCC(Oc3ncccc3C(=O)N3CCCCC3)C2)c(C)c1` (stereo not drawn) [SN00800036]: 0.0%.

Consider `CN(C)C(=O)c1ccc(OC2CCN(C(=O)c3ccco3)CC2)nc1` [SN00800077], for which the “% Inhibition n=1 48h” value was found to be 13.6%. As to `CN(C)C(=O)c1ccc(OC2CCN(Cc3ccccn3)C2)nc1` (stereo not drawn) [SN00800120], the “% Inhibition n=1 48h” value is 6.6%. On to `O=C(c1ccoc1)N1CCC(Oc2nccnc2N2CCc3ccccc32)C1` (stereo not drawn) [SN00800151], for which the “% Inhibition n=1 48h” value turned out to be 22.8%. Same read-out and setting: the same measure for `COc1cccc(N2CCN(C(=O)C3CCN(c4nc(NC(C)=O)ns4)CC3)CC2)c1` [SN00800160]: 16.2%; for `CC(=O)Nc1nsc(N2CCCC(C(=O)NCc3ccccc3Cl)C2)n1` (stereo not drawn) [SN00800180]: 5.9%; for `CCN1c2cc(Cl)ccc2C(=O)NC12CCN(C(=O)Nc1ccc3c(c1)OCO3)CC2` [SN00800192]: 8.9%.

Consider `CCc1nn(CC)c(=O)c2cc(S(=O)(=O)N3CCOCC3)cn12` [SN00800228], for which the “% Inhibition n=1 48h” value is 11.8%. As for `CN(C)C(=O)c1[nH]nc2c1CN(C(=O)CCc1ccccc1)CC2` [SN00800269], the “% Inhibition n=1 48h” value is given as 0.0%. Regarding `O=C(c1cccc(N2CCNC(c3ccccc3)C2)n1)N1CCN(c2ccccc2)CC1` (stereo not drawn) [SN00800322], the “% Inhibition n=1 48h” value is on record as 13.5%. Regarding `O=C(c1ccccc1)N1CCN(c2cc(-c3ccc(Cl)cc3)n[nH]2)CC1` [SN00800335], the “% Inhibition n=1 48h” value is recorded as 14.4%.

Consider `COc1ccc(-c2cc(N3CCN(C(=O)Cc4ccc(F)cc4)CC3)[nH]n2)cc1` [SN00800353], for which the “% Inhibition n=1 48h” value is recorded as 0.0%.

Regarding `COc1ccc(-c2cc(N3CCC(NC(=O)Cc4ccccc4)CC3)[nH]n2)cc1` [SN00800379], the “% Inhibition n=1 48h” value turned out to be 0.0%. Same read-out and setting: the same measure for `O=C(NC1CCN(c2cc(-c3cccs3)n[nH]2)C1)c1ccc2[nH]cnc2c1` (stereo not drawn) [SN00800411]: 29.6%; for `CC1CCN(c2nc(C(=O)NCCc3ccncc3)nc3c2cnn3C)CC1` [SN00800416]: 9.4%; for `CCOC(=O)c1ccc(NC(=O)c2nc(C)n(C3CCN(C(C)=O)CC3)c2C)cc1` [SN00800452]: 13.2%.

On to `O=C1CC(C(=O)N2CCN(c3ccccc3)CC2)CN1CCc1ccccc1` (stereo not drawn) [SN00800474], for which the “% Inhibition n=1 48h” value amounted to 6.2%. Same read-out and setting: the same measure for `CCc1noc(C2(NC(=O)c3cc(-c4ccccc4)n[nH]3)CCCCC2)n1` [SN00800487]: 0.0%; for `Cc1ccc(CNC(=O)N2CCCN(c3ncccc3-c3nc(C4CC4)no3)CC2)cc1` [SN00800535]: 34.3%.

Still in this test, the particulars now being: 48 h, re-assessment.
`CCOC(=O)c1cccc(Nc2ncccc2S(N)(=O)=O)c1` [SN00799296]: the “% Inhibition n=2 48h” value amounted to 0.0%.
